Test results reported in ChEMBL document CHEMBL5113489, “Design, synthesis, and biological evaluation of membrane-active honokiol derivatives as potent antibacterial agents” (Eur J Med Chem, 2022).
The source made the active and inactive calls. The calls are words filed in the database; no cut-off is given here.

Tests used:
[1] = tested on: Escherichia coli; test: Anti-biofilm activity in Escherichia coli ATCC 25922 assessed as disruption rate of biofilm at 8 ug/ml measured by crystal violet staining method; type: functional; conditions: dose 8 µg/ml
[2] = tested on: Cell membrane; test: Induction of cell membrane disruption in Staphylococcus aureus ATCC 43300 assessed as increase in fluorescence intensity at 8 times MIC measured after 2 hrs by PI staining based fluorescence microscopic analysis; type: subcellular
[3] = tested on: Staphylococcus aureus; test: Anti-biofilm activity in Staphylococcus aureus ATCC 43300 assessed as disruption rate of biofilm at 4 ug/ml measured by crystal violet staining method; type: functional; conditions: dose 4 µg/ml
[4] = Cytotoxicity against human HepG2 cells assessed as cell viability at 16 ug/ml measured by SRB assay; type: toxicity, cell-based; conditions: at 16 µg/mL, read-out: Activity
[5] = tested on: Staphylococcus aureus; test: In vivo antibacterial activity against Staphylococcus aureus ATCC 43300 in septicemia mouse model assessed as log reduction in bacterial load in liver at 10 mg/kg, administered every 12 hrs for 3 days; type: functional
[6] = tested on: Escherichia coli; test: Anti-biofilm activity in Escherichia coli ATCC 25922 assessed as disruption rate of biofilm at 32 ug/ml measured by crystal violet staining method; type: functional; conditions: dose 32 µg/ml
[7] = Cytotoxicity against human HepG2 cells assessed as cell viability at 8 ug/ml measured by SRB assay; type: toxicity, cell-based; conditions: at 8 µg/mL, read-out: Activity
[8] = tested on: Escherichia coli; test: Anti-biofilm activity in Escherichia coli ATCC 25922 assessed as disruption rate of biofilm at 64 ug/ml measured by crystal violet staining method; type: functional; conditions: dose 64 µg/ml
[9] = Toxicity in septicemia mouse model infected with Staphylococcus aureus ATCC 43300 assessed as effect on liver at 5 to 10 mg/kg, administered every 12 hrs for 3 days measured by histopathological analysis; type: organism-based; conditions: in vivo, dose 5-10 mg/kg
[10] = tested on: Pseudomonas aeruginosa; test: Antibacterial activity against Pseudomonas aeruginosa ATCC 27853; type: functional
[11] = tested on: Staphylococcus aureus; test: Anti-biofilm activity in Staphylococcus aureus ATCC 43300 assessed as inhibition of biofilm formation at 0.5 ug/ml; type: functional
[12] = tested on: Cell membrane; test: Induction of cell membrane disruption in Escherichia coli ATCC 25922 assessed as increase in fluorescence intensity at 8 times MIC measured after 2 hrs by DAPI staining based fluorescence microscopic analysis
[13] = tested on: Staphylococcus aureus; test: Anti-biofilm activity in Staphylococcus aureus ATCC 43300 assessed as inhibition of biofilm formation at 8 ug/ml; type: functional
[14] = tested on: Staphylococcus aureus; test: Antibacterial activity against Staphylococcus aureus ATCC 31007; type: functional
[15] = tested on: Staphylococcus aureus; test: Anti-biofilm activity in Staphylococcus aureus ATCC 43300 assessed as disruption rate of biofilm at 2 ug/ml measured by crystal violet staining method; type: functional; conditions: dose 2 µg/ml
[16] = tested on: Staphylococcus aureus; test: Anti-biofilm activity in Staphylococcus aureus ATCC 43300 assessed as disruption rate of biofilm at 16 ug/ml measured by crystal violet staining method; type: functional; conditions: dose 16 µg/ml
[17] = Hemolytic activity in sheep RBC; type: toxicity, cell-based, Ovis aries, Erythrocyte; conditions: sheep red blood cells (erythrocytes)
[18] = Selectivity index, ratio of HC50 for hemolytic activity in sheep RBC to MIC for antibacterial activity against Staphylococcus aureus ATCC 43300; type: toxicity; conditions: sheep red blood cells (erythrocytes)
[19] = tested on: Escherichia coli; test: Antibacterial activity against Escherichia coli ATCC 25922; type: functional
[20] = tested on: Staphylococcus aureus; test: Anti-biofilm activity in Staphylococcus aureus ATCC 43300 assessed as inhibition of biofilm formation at 2 ug/ml; type: functional
[21] = tested on: Cell membrane; test: Induction of inner membrane permeabilization in Staphylococcus aureus ATCC 43300 assessed as increase in PI uptake by measuring increase in fluorescence intensity at 1 to 8 ug/ml by propidium iodide staining based fluorescence analysis; type: subcellular; conditions: dose 1-8 µg/ml
[22] = Cytotoxicity against human HepG2 cells assessed as cell viability at 32 ug/ml measured by SRB assay; type: toxicity, cell-based; conditions: at 32 µg/mL, read-out: Activity
[23] = tested on: Escherichia coli; test: Anti-biofilm activity in Escherichia coli ATCC 25922 assessed as disruption rate of biofilm at 16 ug/ml measured by crystal violet staining method; type: functional; conditions: dose 16 µg/ml
[24] = tested on: Staphylococcus aureus; test: In vivo antibacterial activity against Staphylococcus aureus ATCC 43300 in septicemia mouse model assessed as log reduction in bacterial load in kidney at 10 mg/kg, administered every 12 hrs for 3 days; type: functional
[25] = tested on: Cell membrane; test: Induction of outer membrane permeabilization to NPN in Escherichia coli ATCC 25922 cells assessed as increase in fluorescence intensity at 4 to 32 ug/ml by NPN-probe based fluorescence spectrophotometric analysis; type: subcellular; conditions: dose 4-32 µg/ml
[26] = tested on: Staphylococcus aureus; test: In vivo antibacterial activity against Staphylococcus aureus ATCC 43300 in septicemia mouse model assessed as reduction in bacterial load in liver at 10 mg/kg, administered every 12 hrs for 3 days; type: functional; design: scale not given: the % may be the effect or the level left
[27] = tested on: Cell membrane; test: Induction of inner membrane permeabilization in Escherichia coli ATCC 25922 assessed as increase in PI uptake by measuring increase in fluorescence intensity at 4 to 32 ug/ml by propidium iodide staining based fluorescence analysis; type: subcellular; conditions: dose 4-32 µg/ml
[28] = tested on: Staphylococcus aureus; test: Antibacterial activity against Staphylococcus aureus ATCC 43300 assessed as resistance development by measuring fold increase in MIC; type: functional
[29] = tested on: Escherichia coli; test: Anti-biofilm activity in Escherichia coli ATCC 25922 assessed as inhibition of biofilm formation at 16 ug/ml; type: functional
[30] = tested on: Escherichia coli; test: Antibacterial activity against Escherichia coli ATCC 25922 assessed as resistance development by measuring fold increase in MIC; type: functional
[31] = Cytotoxicity against human HepG2 cells assessed as cell viability at 128 ug/ml measured by SRB assay; type: toxicity, cell-based; conditions: dose 128 µg/ml, read-out: Activity
[32] = tested on: Cell membrane; test: Induction of cell membrane disruption in Staphylococcus aureus ATCC 43300 assessed as increase in fluorescence intensity at 8 times MIC measured after 2 hrs by DAPI staining based fluorescence microscopic analysis
[33] = tested on: Staphylococcus aureus; test: Antibacterial activity against Staphylococcus aureus ATCC 43300 assessed as bacterial killing at 8XMIC incubated for 3 hrs and measured by time-kill kinetic study; type: functional
[34] = Toxicity in septicemia mouse model infected with Staphylococcus aureus ATCC 43300 assessed as effect on spleen at 5 to 10 mg/kg, administered every 12 hrs for 3 days measured by histopathological analysis; type: organism-based; conditions: in vivo, dose 5-10 mg/kg
[35] = tested on: Staphylococcus aureus; test: Antibacterial activity against Staphylococcus aureus ATCC 43300 assessed as bacterial killing at 4 x MIC incubated for 9 hrs and measured by time-kill kinetic study; type: functional
[36] = tested on: Escherichia coli; test: Anti-biofilm activity in Escherichia coli ATCC 25922 assessed as inhibition of biofilm formation at 1 ug/ml; type: functional
[37] = tested on: Cell membrane; test: Induction of cytoplasmic membrane depolarization in Staphylococcus aureus ATCC 43300 assessed as increase in fluorescence intensity at 1 to 8 times MIC measured by DiSC3-5 dye based fluorescence method; type: subcellular
[38] = tested on: Cell membrane; test: Induction of cell membrane disruption in Escherichia coli ATCC 25922 assessed as increase in fluorescence intensity at 8 times MIC measured after 2 hrs by PI staining based fluorescence microscopic analysis; type: subcellular
[39] = tested on: Staphylococcus aureus; test: Anti-biofilm activity in Staphylococcus aureus ATCC 43300 assessed as inhibition of biofilm formation at 4 ug/ml; type: functional

C=CCc1ccc(OCCC[N+](C)(C)CCCCCC)c(-c2ccc(OCCC[N+](C)(C)CCCCCC)c(CC=C)c2)c1.[Br-].[Br-]
Activity [1]: 46.42% | Activity [2]: Active | Activity [3]: 17.61% | viability at 16 ug/ml [4]: 85.4% | log(activity) [5]: 2.35 | Activity [6]: 57.36% | viability at 8 ug/ml [7]: 90.3% | Activity [8]: 65.6% | Activity [9]: Non-Toxic | MIC [10]: 16 µg/mL | inhibition at 0.5 µg/mL [11]: 9.72% | Activity [12]: Active | inhibition at 8 µg/mL [13]: 93.7% | MIC [14]: 0.5 µg/mL | Activity [15]: 11.43% | Activity [16]: 39.12% | HC50 [17]: 410 µg/mL | selectivity ratio [18]: 410 | MIC [19]: 4 µg/mL | inhibition at 2 µg/mL [20]: 20.1% | Activity [21]: Active | viability at 32 ug/ml [22]: 68.1% | Activity [23]: 51.55% | log(activity) [24]: 1.94 | Activity [25]: Active | Activity [26]: 99.5% | Activity [27]: Active | fold change (FC) [28]: <4 | inhibition at 16 µg/mL [29]: 65.4% | fold change (FC) [30]: <4 | viability at 128 ug/ml [31]: 36.6% | Activity [32]: Active | Activity [33]: 100% | Activity [34]: Non-Toxic | Activity [35]: >=99% | inhibition at 1 µg/mL [36]: 11.3% | Activity [37]: Active | Activity [38]: Active | inhibition at 4 µg/mL [39]: 91.2%
